The EC50 is the concentration at which the effect is half-maximal. By Emax is commonly meant the size of the effect at its maximum, as opposed to the concentration needed.

SMILES strings stand for the structures. Where two headings read alike, the source gives them in different places. Some results are limits rather than exact numbers.

This note sets out measurements from US20230265151A1, “GIP/GLP1 CO-AGONIST COMPOUNDS” (priority 2020, published 2023).

One assay addresses T1, hGCGR (Homo sapiens, UniProt P47871).
T1 construct: expressed in transfected cells
The assay can be described thus: Functional cAMP formation (HTRF) in HEK-293 clonal cells expressing hGCGR, 0.1% bovine casein, without or with 1.0% human serum albumin. Type of assay: cell-based. The settings on record: geometric mean. The procedure, abridged: (§1)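 Readings of the HTRF 665/620 nm ratio, which falls as cAMP rises, were converted to nM cAMP using a standard curve after 30 min peptide exposure at 37° C.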
In general terms: Changes in cAMP serve as a functional read-out for many G protein-coupled receptors.

For the next assay, the target named is T2, hGIPR (Homo sapiens, UniProt P48546).
T2 construct: expressed in transfected cells
T2 sequence (P48546 22-466): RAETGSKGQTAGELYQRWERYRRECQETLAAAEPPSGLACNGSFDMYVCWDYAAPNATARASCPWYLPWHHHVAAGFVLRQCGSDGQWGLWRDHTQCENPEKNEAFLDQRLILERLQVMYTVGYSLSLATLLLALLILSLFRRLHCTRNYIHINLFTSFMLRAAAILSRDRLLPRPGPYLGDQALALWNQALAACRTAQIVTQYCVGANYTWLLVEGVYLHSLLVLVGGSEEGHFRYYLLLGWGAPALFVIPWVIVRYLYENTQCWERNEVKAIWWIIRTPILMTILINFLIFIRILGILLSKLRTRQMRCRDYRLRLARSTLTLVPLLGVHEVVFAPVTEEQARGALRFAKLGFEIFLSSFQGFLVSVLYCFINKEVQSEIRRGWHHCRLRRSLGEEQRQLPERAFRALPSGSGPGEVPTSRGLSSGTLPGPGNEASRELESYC
The assay can be described thus: Functional cAMP formation (HTRF) in HEK-293 clonal cells expressing hGIPR, 0.1% bovine casein, without or with 1.0% human serum albumin. Type of assay: cell-based. The settings on record: for EC50: geometric mean. An outline of the steps:
as §1

The mark [1] stands for this setting: cAMP, incubated at 37° C., 0.1% bovine casein (no human serum albumin), read-out: hGCGR EC50, nM (SEM, n).
Setting [2] is: HEK293, percent of maximal response to GIP(1-42)NH2, 37° C., 0.1% bovine casein, arithmetic mean, read-out: hGIPR Emax, % ± SEM.
Where [3] appears, read: cAMP, incubated at 37° C., 0.1% bovine casein (no human serum albumin), read-out: hGIPR EC50, nM (SEM, n).

T1 sequence (P47871 26-477): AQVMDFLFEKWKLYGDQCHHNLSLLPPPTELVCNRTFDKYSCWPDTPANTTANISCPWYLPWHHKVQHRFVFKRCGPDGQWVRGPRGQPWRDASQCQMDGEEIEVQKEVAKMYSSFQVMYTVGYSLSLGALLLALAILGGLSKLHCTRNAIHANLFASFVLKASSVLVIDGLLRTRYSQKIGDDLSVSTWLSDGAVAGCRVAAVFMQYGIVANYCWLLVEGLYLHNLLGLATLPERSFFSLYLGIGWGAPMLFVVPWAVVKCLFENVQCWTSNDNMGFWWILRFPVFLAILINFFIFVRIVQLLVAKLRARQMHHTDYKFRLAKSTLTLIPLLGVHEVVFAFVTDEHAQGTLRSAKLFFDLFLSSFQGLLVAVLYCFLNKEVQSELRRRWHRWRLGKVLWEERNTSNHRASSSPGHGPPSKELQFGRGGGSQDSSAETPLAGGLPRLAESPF

As to `CC[C@H](C)[C@H](NC(=O)[C@H](CC(C)C)NC(=O)[C@](C)(Cc1ccc(O)cc1)NC(=O)[C@@H](CCC(=O)O)NC(=O)[C@@H](NC(=O)[C@H](Cc1ccccc1)NC(=O)[C@H](CCC(=O)O)NC(=O)C(C)(C)NC(=O)[C@H](CCC(N)=O)NC(=O)[C@H](C)NC(=O)[C@H](CCCCNC(=O)COCCOCCNC(=O)COCCOCCNC(=O)CC[C@H](NC(=O)CCCCCCCCCCCCC(=O)O)C(=O)O)NC(=O)[C@H](CCCN)NC(=O)[C@H](CC(=O)O)NC(=O)[C@H](CC(C)C)NC(=O)[C@](C)(CC(C)C)NC(=O)[C@@H](NC(=O)[C@H](CO)NC(=O)[C@H](Cc1ccncc1)NC(=O)[C@H](CC(=O)O)NC(=O)[C@H](CO)NC(=O)[C@@H](NC(=O)[C@](C)(Cc1ccccc1F)NC(=O)[C@@H](NC(=O)CNC(=O)[C@H](CCC(=O)O)NC(=O)C(C)(C)NC(=O)[C@@H](N)Cc1ccc(O)cc1)[C@@H](C)O)[C@@H](C)O)[C@@H](C)CC)[C@@H](C)CC)C(=O)N[C@@H](CCC(=O)O)C(=O)NCC(=O)N[C@@H](CCCN)C(=O)N[C@@H](CCCCNC(=O)COCCOCCNC(=O)COCCOCCNC(=O)CC[C@H](NC(=O)CCCCCCCCCCCCC(=O)O)C(=O)O)C(=O)N[C@@H](CO)C(=O)N[C@@H](CO)C(=O)NCC(=O)N[C@@H](C)C(=O)N1CCC[C@H]1C(=O)N1CCC[C@H]1C(=O)N1CCC[C@H]1C(=O)N[C@@H](CO)C(N)=O` [Example 152], the EC50 at hGCGR (setting [1]) is over 9950 nM. Further, on hGIPR (setting [2]), the Emax amounted to 97.9 ± 3.25%.
As for `CC[C@H](C)[C@H](NC(=O)[C@H](CC(C)C)NC(=O)[C@](C)(Cc1ccc(O)cc1)NC(=O)[C@@H](CCC(=O)O)NC(=O)[C@@H](NC(=O)[C@H](Cc1ccccc1)NC(=O)[C@H](CCC(=O)O)NC(=O)C(C)(C)NC(=O)[C@H](CCC(N)=O)NC(=O)[C@H](C)NC(=O)[C@H](CCCCNC(=O)COCCOCCNC(=O)COCCOCCNC(=O)CC[C@H](NC(=O)CCCCCCCCCCCCC(=O)O)C(=O)O)NC(=O)[C@H](CCCN)NC(=O)[C@H](CC(=O)O)NC(=O)[C@H](CC(C)C)NC(=O)[C@](C)(CC(C)C)NC(=O)[C@@H](NC(=O)[C@H](CO)NC(=O)[C@H](Cc1ccc(OC)cc1)NC(=O)[C@H](CC(=O)O)NC(=O)[C@H](CO)NC(=O)[C@@H](NC(=O)[C@](C)(Cc1ccccc1F)NC(=O)[C@@H](NC(=O)CNC(=O)[C@H](CCC(=O)O)NC(=O)C(C)(C)NC(=O)[C@@H](N)Cc1ccc(O)cc1)[C@@H](C)O)[C@@H](C)O)[C@@H](C)CC)[C@@H](C)CC)C(=O)N[C@@H](CCCCNC(=O)COCCOCCNC(=O)COCCOCCNC(=O)CC[C@H](NC(=O)CCCCCCCCCCCCC(=O)O)C(=O)O)C(=O)NCC(=O)NCC(=O)N1CCC[C@H]1C(=O)N[C@@H](CO)C(=O)N[C@@H](CO)C(=O)NCC(=O)N[C@@H](C)C(=O)N1CCC[C@H]1C(=O)N1CCC[C@H]1C(=O)N1CCC[C@H]1C(=O)N[C@@H](CO)C(N)=O` [Example 260], the EC50 is over 9950 nM on hGCGR (0.1% bovine casein and 1.0% human serum albumin, 37° C., read-out: hGCGR EC50, nM (SEM, n)); over 9950 nM at hGCGR (cAMP, 37° C., 0.1% bovine casein (no human serum albumin), read-out: hGCGR EC50, nM (SEM, n)); 3.27 nM at hGIPR (0.1% bovine casein and 1.0% human serum albumin, 37° C., read-out: hGIPR EC50, nM (SEM, n)); 0.0239 nM on hGIPR (cAMP, 37° C., 0.1% bovine casein (no human serum albumin), read-out: hGIPR EC50, nM (SEM, n)). The Emax at hGIPR (HEK293, 0.1% bovine casein and 1.0% human serum albumin, 37° C., percent of maximal response to GIP(1-42)NH2, read-out: hGIPR Emax, % ± SEM) stood at 83%; at hGIPR (HEK293, cAMP, 37° C., 0.1% bovine casein, percent of maximal response to GIP(1-42)NH2, arithmetic mean, read-out: hGIPR Emax, % ± SEM), 113%.
For `CC[C@H](C)[C@H](NC(=O)[C@H](CC(C)C)NC(=O)[C@](C)(Cc1ccc(O)cc1)NC(=O)[C@H](CCCCNC(=O)COCCOCCNC(=O)COCCOCCNC(=O)COCCOCCNC(=O)CC[C@H](NC(=O)CCCCCCCCCCCCC(=O)O)C(=O)O)NC(=O)[C@@H](NC(=O)[C@H](Cc1ccccc1)NC(=O)[C@H](CCC(=O)O)NC(=O)C(C)(C)NC(=O)[C@H](CCC(N)=O)NC(=O)[C@H](C)NC(=O)[C@H](CCCCNC(=O)COCCOCCNC(=O)COCCOCCNC(=O)COCCOCCNC(=O)CC[C@H](NC(=O)CCCCCCCCCCCCC(=O)O)C(=O)O)NC(=O)[C@H](CCCN)NC(=O)[C@H](CC(=O)O)NC(=O)[C@H](CC(C)C)NC(=O)[C@](C)(CC(C)C)NC(=O)[C@@H](NC(=O)[C@H](CO)NC(=O)[C@H](Cc1ccncc1)NC(=O)[C@H](CC(=O)O)NC(=O)[C@H](CO)NC(=O)[C@@H](NC(=O)[C@](C)(Cc1ccccc1F)NC(=O)[C@@H](NC(=O)CNC(=O)[C@H](CCC(=O)O)NC(=O)C(C)(C)NC(=O)[C@@H](N)Cc1ccc(O)cc1)[C@@H](C)O)[C@@H](C)O)[C@@H](C)CC)[C@@H](C)CC)C(=O)N[C@@H](CCC(=O)O)C(=O)NCC(=O)NCC(=O)N1CCC[C@H]1C(=O)N[C@@H](CO)C(=O)N[C@@H](CO)C(=O)NCC(=O)N[C@@H](C)C(=O)N1CCC[C@H]1C(=O)N1CCC[C@H]1C(=O)N1CCC[C@H]1C(=O)N[C@@H](CO)C(N)=O` [Example 80], the half-maximal effective concentration (EC50) on hGCGR (hGCGR EC50, nM (SEM, n), cAMP, incubated at 37° C., 0.1% bovine casein (no human serum albumin)) was over 9950 nM; at hGIPR (hGIPR EC50, nM (SEM, n), cAMP, incubated at 37° C., 0.1% bovine casein (no human serum albumin)) it was 0.0245 nM. At hGIPR (HEK293, read-out: hGIPR Emax, % ± SEM, percent of maximal response to GIP(1-42)NH2, 37° C., 0.1% bovine casein, arithmetic mean), the maximum response (Emax) worked out at 92.4 ± 1.14%.
As to `CC[C@H](C)[C@H](NC(=O)[C@H](CCCN)NC(=O)[C@H](CC(=O)O)NC(=O)[C@H](CC(C)C)NC(=O)[C@](C)(CC(C)C)NC(=O)[C@@H](NC(=O)[C@H](CO)NC(=O)[C@H](CCCCNC(=O)COCCOCCNC(=O)COCCOCCNC(=O)CC[C@H](NC(=O)CCCCCCCCCCCCC(=O)O)C(=O)O)NC(=O)[C@H](CC(=O)O)NC(=O)[C@H](CO)NC(=O)[C@@H](NC(=O)[C@](C)(Cc1ccccc1F)NC(=O)[C@@H](NC(=O)CNC(=O)[C@H](CCC(=O)O)NC(=O)C(C)(C)NC(=O)[C@@H](N)Cc1ccc(O)cc1)[C@@H](C)O)[C@@H](C)O)[C@@H](C)CC)C(=O)N[C@@H](C)C(=O)N[C@@H](CCC(N)=O)C(=O)NC(C)(C)C(=O)N[C@@H](CCC(=O)O)C(=O)N[C@@](C)(Cc1ccccc1)C(=O)N[C@H](C(=O)N[C@H](CCC(=O)O)C(=O)N[C@@](C)(Cc1ccc(O)cc1)C(=O)N[C@@H](CC(C)C)C(=O)N[C@H](C(=O)N[C@@H](CCC(=O)O)C(=O)NCC(=O)NCC(=O)N[C@@H](CCCCNC(=O)COCCOCCNC(=O)COCCOCCNC(=O)CC[C@H](NC(=O)CCCCCCCCCCCCC(=O)O)C(=O)O)C(=O)N[C@@H](CO)C(=O)N[C@@H](CO)C(=O)NCC(=O)N[C@@H](C)C(=O)N1CCC[C@H]1C(=O)N1CCC[C@H]1C(=O)N1CCC[C@H]1C(=O)N[C@@H](CO)C(N)=O)[C@@H](C)CC)[C@@H](C)CC` [Example 112], the half-maximal effective concentration (EC50) at hGCGR (setting [1]) is over 9950 nM; on hGIPR (setting [3]), 0.0229 nM. Further, on hGIPR (setting [2]), the Emax was found to be 93.6%.
Regarding `CC[C@H](C)[C@H](NC(=O)[C@H](CC(C)C)NC(=O)[C@](C)(Cc1ccc(O)cc1)NC(=O)[C@@H](CCC(=O)O)NC(=O)[C@@H](NC(=O)[C@H](Cc1ccccc1)NC(=O)[C@H](CCC(=O)O)NC(=O)C(C)(C)NC(=O)[C@H](CCC(N)=O)NC(=O)[C@H](C)NC(=O)[C@H](CCCCNC(=O)COCCOCCNC(=O)COCCOCCNC(=O)CC[C@H](NC(=O)CCCCCCCCCCCCC(=O)O)C(=O)O)NC(=O)[C@H](CCCN)NC(=O)[C@H](CC(=O)O)NC(=O)[C@H](CC(C)C)NC(=O)[C@](C)(CC(C)C)NC(=O)[C@@H](NC(=O)[C@H](CO)NC(=O)[C@H](Cc1ccsc1)NC(=O)[C@H](CC(=O)O)NC(=O)[C@H](CO)NC(=O)[C@@H](NC(=O)[C@](C)(Cc1ccccc1F)NC(=O)[C@@H](NC(=O)CNC(=O)[C@H](CCC(=O)O)NC(=O)C(C)(C)NC(=O)[C@@H](N)Cc1ccc(O)cc1)[C@@H](C)O)[C@@H](C)O)[C@@H](C)CC)[C@@H](C)CC)C(=O)N[C@@H](CCC(=O)O)C(=O)NCC(=O)NCC(=O)N[C@@H](CCCCNC(=O)COCCOCCNC(=O)COCCOCCNC(=O)CC[C@H](NC(=O)CCCCCCCCCCCCC(=O)O)C(=O)O)C(=O)N[C@@H](CO)C(=O)N[C@@H](CO)C(=O)NCC(=O)N[C@@H](C)C(=O)N1CCC[C@H]1C(=O)N1CCC[C@H]1C(=O)N1CCC[C@H]1C(=O)N[C@@H](CO)C(N)=O` [Example 146], the EC50 is over 9950 nM at hGCGR (setting [1]) and 0.0198 nM on hGIPR (setting [3]). In addition, the Emax on hGIPR (setting [2]) is 76.5%.
